Results reported in US10189816B2, “Substituted pyridines as inhibitors of human immunodeficiency virus replication” (priority 2015, dated 2019).
Where two headings read alike, the source gives them in different places.

Tested on: NL-RLuc virus
Test: Inhibition of HIV replication (NL-RLuc reporter virus in MT-2 cells, luciferase readout)
Assay type: cell-based
Conditions: Human immunodeficiency virus 1, MT2, 120 h
Outline: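 Antiviral EC50 came from luciferase signal after 5-day multicycle replication of NL-RLuc virus in MT-2 cells with serially diluted compound (RPMI 1640, 10% heat-inactivated FBS), fitted by the median effect equation over at least 2 experiments.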

SMILES	EC50 (read-out: Activity)	EC50 (read-out: EC50 μM)
COc1cc(CN2CCc3cc(-c4c(C)nc(C)c([C@H](OC(C)(C)C)C(=O)O)c4N4CCC(C)(C)CC4)ccc3C2)ccc1Cl [Compound 138, (S)-2-(tert-butoxy)-2-(5-(2-(4-chloro-3-methoxybenzyl)-1,2,3,4-tetrahydroisoquinolin-6-yl)-4-(4,4-dimethylpiperidin-1-yl)-2,6-dimethylpyridin-3-yl)acetic acid]	< 0.1 µM	–
COc1ccc(C(C)C)cc1CN1CCc2cc(-c3c(C)nc(C)c([C@H](OC(C)(C)C)C(=O)O)c3N3CCC(C)(C)CC3)ccc2C1 [Compound 139, (S)-2-(tert-butoxy)-2-(4-(4,4-dimethylpiperidin-1-yl)-5-(2-(5-isopropyl-2-methoxybenzyl)-1,2,3,4-tetrahydroisoquinolin-6-yl)-2,6-dimethylpyridin-3-yl)acetic acid]	< 0.1 µM	0.03 µM
COc1cc(CN2CCc3cc(-c4c(C)nc(C)c([C@H](OC(C)(C)C)C(=O)O)c4N4CCC(C)(C)CC4)ccc3C2)ccc1C [Compound 140, (S)-2-(tert-butoxy)-2-(4-(4,4-dimethylpiperidin-1-yl)-5-(2-(3-methoxy-4-methylbenzyl)-1,2,3,4-tetrahydroisoquinolin-6-yl)-2,6-dimethylpyridin-3-yl)acetic acid]	< 0.1 µM	–
COc1ccc(CN2CCc3cc(-c4c(C)nc(C)c([C@H](OC(C)(C)C)C(=O)O)c4N4CCC(C)(C)CC4)ccc3C2)cc1C [Compound 141, (S)-2-(tert-butoxy)-2-(4-(4,4-dimethylpiperidin-1-yl)-5-(2-(4-methoxy-3-methylbenzyl)-1,2,3,4-tetrahydroisoquinolin-6-yl)-2,6-dimethylpyridin-3-yl)acetic acid]	< 0.1 µM	–
COc1c(F)cccc1CN1CCc2cc(-c3c(C)nc(C)c([C@H](OC(C)(C)C)C(=O)O)c3N3CCC(C)(C)CC3)ccc2C1 [Compound 142, (S)-2-(tert-butoxy)-2-(4-(4,4-dimethylpiperidin-1-yl)-5-(2-(3-fluoro-2-methoxybenzyl)-1,2,3,4-tetrahydroisoquinolin-6-yl)-2,6-dimethylpyridin-3-yl)acetic acid]	< 0.1 µM	–
COc1ccc(CN2CCc3cc(-c4c(C)nc(C)c([C@H](OC(C)(C)C)C(=O)O)c4N4CCC(C)(C)CC4)ccc3C2)cc1C(C)C [Compound 143, (S)-2-(tert-butoxy)-2-(4-(4,4-dimethylpiperidin-1-yl)-5-(2-(3-isopropyl-4-methoxybenzyl)-1,2,3,4-tetrahydroisoquinolin-6-yl)-2,6-dimethylpyridin-3-yl)acetic acid]	< 0.1 µM	–
Cc1nc(C)c([C@H](OC(C)(C)C)C(=O)O)c(N2CCC(C)(C)CC2)c1-c1ccc2c(c1)CCN(Cc1c(O)cc(F)cc1F)C2 [Compound 144, (S)-2-(tert-butoxy)-2-(5-(2-(2,4-difluoro-6-hydroxybenzyl)-1,2,3,4-tetrahydroisoquinolin-6-yl)-4-(4,4-dimethylpiperidin-1-yl)-2,6-dimethylpyridin-3-yl)acetic acid]	< 0.1 µM	0.008 µM
COc1cccc(Cl)c1CN1CCc2cc(-c3c(C)nc(C)c([C@H](OC(C)(C)C)C(=O)O)c3N3CCC(C)(C)CC3)ccc2C1 [Compound 145, (S)-2-(tert-butoxy)-2-(5-(2-(2-chloro-6-methoxybenzyl)-1,2,3,4-tetrahydroisoquinolin-6-yl)-4-(4,4-dimethylpiperidin-1-yl)-2,6-dimethylpyridin-3-yl)acetic acid]	< 0.1 µM	–
COc1ccc(CN2CCc3cc(-c4c(C)nc(C)c([C@H](OC(C)(C)C)C(=O)O)c4N4CCC(C)(C)CC4)ccc3C2)c(F)c1 [Compound 146, (S)-2-(tert-butoxy)-2-(4-(4,4-dimethylpiperidin-1-yl)-5-(2-(2-fluoro-4-methoxybenzyl)-1,2,3,4-tetrahydroisoquinolin-6-yl)-2,6-dimethylpyridin-3-yl)acetic acid]	< 0.1 µM	–
